Source: BindingDB's records for patent US20250170122 (Intellikine, 2025)

Target: T1, Phosphatidylinositol 4,5-bisphosphate 3-kinase catalytic subunit delta isoform (Homo sapiens, UniProt O00329)
T1 sequence (O00329 whole entry): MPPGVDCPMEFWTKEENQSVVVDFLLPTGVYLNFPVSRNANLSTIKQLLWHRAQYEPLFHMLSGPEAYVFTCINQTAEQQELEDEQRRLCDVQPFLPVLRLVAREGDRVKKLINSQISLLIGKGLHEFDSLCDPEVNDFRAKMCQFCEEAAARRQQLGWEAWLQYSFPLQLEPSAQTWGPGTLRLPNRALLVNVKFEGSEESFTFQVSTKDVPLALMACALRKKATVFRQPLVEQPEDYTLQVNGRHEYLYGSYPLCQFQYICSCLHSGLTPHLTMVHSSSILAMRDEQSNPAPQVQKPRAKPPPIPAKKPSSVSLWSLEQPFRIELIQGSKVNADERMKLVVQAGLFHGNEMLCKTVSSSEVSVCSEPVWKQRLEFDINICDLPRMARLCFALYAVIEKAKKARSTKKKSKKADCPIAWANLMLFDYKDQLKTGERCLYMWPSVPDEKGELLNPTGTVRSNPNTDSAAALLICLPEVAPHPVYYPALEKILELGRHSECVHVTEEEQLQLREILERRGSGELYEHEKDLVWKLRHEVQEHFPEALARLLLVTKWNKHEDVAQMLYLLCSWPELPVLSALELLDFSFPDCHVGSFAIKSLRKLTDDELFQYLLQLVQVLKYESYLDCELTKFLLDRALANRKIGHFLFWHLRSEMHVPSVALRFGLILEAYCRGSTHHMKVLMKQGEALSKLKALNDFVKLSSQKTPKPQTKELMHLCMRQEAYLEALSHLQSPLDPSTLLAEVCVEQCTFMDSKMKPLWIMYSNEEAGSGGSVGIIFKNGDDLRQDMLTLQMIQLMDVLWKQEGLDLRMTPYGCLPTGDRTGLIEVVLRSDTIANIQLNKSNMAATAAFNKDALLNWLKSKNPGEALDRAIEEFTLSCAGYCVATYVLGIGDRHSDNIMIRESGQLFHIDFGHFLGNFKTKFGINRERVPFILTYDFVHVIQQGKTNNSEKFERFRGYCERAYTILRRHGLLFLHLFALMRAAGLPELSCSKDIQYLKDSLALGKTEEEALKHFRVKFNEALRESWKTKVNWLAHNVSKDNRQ
Assay: Inhibition Assays of p110α/p85α, p110β/p85α, p110δ/p85α, and p110γ
Procedure: (§1) Briefly, the assay is a time resolved FRET assay that indirectly measures PIP3 product formed by the activity of a PI3-K. The kinase reaction is performed in a microtitre plate (e.g., a 384 well microtitre plate). The total reaction volume is approximately 20 ul per well. In the first step, each well receives 2 ul of test compound in 20% dimethylsulphoxide resulting in a 2% DMSO final concentration. Next, approximately 14.5 ul of a kinase/PIP2 mixture (diluted in 1× reaction buffer) is added per well for a final concentration of 0.25-0.3 ug/ml kinase and 10 uM PIP2. […] To start the reaction, 3.5 ul of ATP (diluted in 1× reaction buffer) is added per well for a final concentration of 10 uM ATP. The plate is sealed and incubated for 1 hour at room temperature. The reaction is stopped by adding 5 ul of Stop Solution per well and then 5 ul of Detection Mix is added per well. The plate is sealed, incubated for 1 hour at room temperature, and then read on an appropriate plate reader. Data is analyzed and IC50s are generated using GraphPad Prism 5.

Structure (SMILES)	IC50 [nM]
C[C@H](Nc1ncnc2[nH]cnc12)c1cc2cccc(Cl)c2c(=O)n1-c1cccc(C(F)(F)F)c1 [US20250170122, Compound 366]	< 100
Nc1ncnc2c1c(-c1cn[nH]c1)nn2Cc1cc2cccc(Cl)c2c(=O)n1-c1ccccc1F [US20250170122, Compound 337]	< 100
Cc1cccc2cc(Cn3nc(I)c4c(N)ncnc43)n(C3CCCC3)c(=O)c12 [US20250170122, Compound 57]	< 1000
C[C@H](Nc1ncnc2sccc12)c1cc2cccc(Cl)c2c(=O)n1-c1ccccc1 [US20250170122, Compound 343]	< 100
CNc1ncc(C(F)(F)F)c(N[C@@H](C)c2cc3cccc(Cl)c3c(=O)n2-c2ccccc2)n1 [US20250170122, Compound 354]	< 100
CC(C)C[C@H](Nc1ncnc2[nH]cnc12)c1cc2cccc(Cl)c2c(=O)n1-c1ccccc1 [US20250170122, Compound 363]	< 100
C[C@H](Nc1ncnc2[nH]cnc12)c1cc2cccc(Cl)c2c(=O)n1-c1cccc(Cl)c1 [US20250170122, Compound 365]	< 100
C[C@H](Nc1ncnc2[nH]cnc12)c1cc2ncccc2c(=O)n1-c1ccccc1 [US20250170122, Compound 357]	< 100
C[C@H](Nc1ncnc2[nH]cnc12)c1cc2cccc(F)c2c(=O)n1-c1ccccc1 [US20250170122, Compound 330]	< 100
Nc1ncnc2c1c(-c1cn[nH]c1)nn2Cc1cc2cccc(Cl)c2c(=O)n1-c1ccccc1 [US20250170122, Compound 338]	< 100
Cc1csc2ncnc(N[C@@H](C)c3cc4cccc(Cl)c4c(=O)n3-c3ccccc3)c12 [US20250170122, Compound 352]	< 100
Cc1cccc2cc(Cn3nc(-c4ccc(Cl)c(O)c4)c4c(N)ncnc43)n(C3CCCC3)c(=O)c12 [US20250170122, Compound 71]	< 1000
CC(=O)Nc1nc2ccc(-c3nn(Cc4cc5cccc(C)c5c(=O)n4-c4ccccc4)c(C)c3CN)cc2s1 [US20250170122, Compound 177]	< 100
CC(C)[C@H](Nc1ncnc2[nH]cnc12)c1cc2cccc(Cl)c2c(=O)n1-c1ccccc1 [US20250170122, Compound 364]	< 100
Cc1cccc2cc(Cn3nc(-c4ccc(O)cc4)c4c(N)ncnc43)n(-c3ccccc3F)c(=O)c12 [US20250170122, Compound 46]	< 10000
Nc1ncnc2c1c(-c1cn[nH]c1)nn2Cc1cc2cccc(Cl)c2c(=O)n1-c1cccc(F)c1 [US20250170122, Compound 339]	< 100
Cc1ccccc1-n1c(Cn2cnc3c(N)ncnc32)cc2cccc(C)c2c1=O [US20250170122, Compound 5]	< 10000
C[C@H](Nc1ncnc2[nH]cnc12)c1cc2cccc(F)c2c(=O)n1-c1cccc(F)c1 [US20250170122, Compound 331]	< 100
CC(C)n1c(Cn2nc(I)c3c(N)ncnc32)cc2ccccc2c1=O [US20250170122, Compound 129]	< 10000
C[C@H](Nc1ncnc2ccsc12)c1cc2cccc(Cl)c2c(=O)n1-c1ccccc1 [US20250170122, Compound 344]	< 100
C[C@H](Nc1nc(N)ncc1C(F)(F)F)c1cc2cccc(Cl)c2c(=O)n1-c1ccccc1 [US20250170122, Compound 346]	< 100
Cc1ccccc1-n1c(Cn2nc(-c3cn[nH]c3)c3c(N)ncnc32)cc2cccc(Cl)c2c1=O [US20250170122, Compound 336]	< 100
C[C@H](Nc1ncnc2[nH]cnc12)c1cc2cccc(Cl)c2c(=O)n1-c1ccc(F)cc1 [US20250170122, Compound 329]	< 100
C[C@H](Nc1ncnc2[nH]cnc12)c1cc2cccc(Cl)c2c(=O)n1-c1cccc(F)c1 [US20250170122, Compound 328]	< 100

Target: Phosphatidylinositol 4,5-bisphosphate 3-kinase catalytic subunit beta isoform (Homo sapiens, UniProt P42338)
Sequence (P42338 whole entry, canonical isoform): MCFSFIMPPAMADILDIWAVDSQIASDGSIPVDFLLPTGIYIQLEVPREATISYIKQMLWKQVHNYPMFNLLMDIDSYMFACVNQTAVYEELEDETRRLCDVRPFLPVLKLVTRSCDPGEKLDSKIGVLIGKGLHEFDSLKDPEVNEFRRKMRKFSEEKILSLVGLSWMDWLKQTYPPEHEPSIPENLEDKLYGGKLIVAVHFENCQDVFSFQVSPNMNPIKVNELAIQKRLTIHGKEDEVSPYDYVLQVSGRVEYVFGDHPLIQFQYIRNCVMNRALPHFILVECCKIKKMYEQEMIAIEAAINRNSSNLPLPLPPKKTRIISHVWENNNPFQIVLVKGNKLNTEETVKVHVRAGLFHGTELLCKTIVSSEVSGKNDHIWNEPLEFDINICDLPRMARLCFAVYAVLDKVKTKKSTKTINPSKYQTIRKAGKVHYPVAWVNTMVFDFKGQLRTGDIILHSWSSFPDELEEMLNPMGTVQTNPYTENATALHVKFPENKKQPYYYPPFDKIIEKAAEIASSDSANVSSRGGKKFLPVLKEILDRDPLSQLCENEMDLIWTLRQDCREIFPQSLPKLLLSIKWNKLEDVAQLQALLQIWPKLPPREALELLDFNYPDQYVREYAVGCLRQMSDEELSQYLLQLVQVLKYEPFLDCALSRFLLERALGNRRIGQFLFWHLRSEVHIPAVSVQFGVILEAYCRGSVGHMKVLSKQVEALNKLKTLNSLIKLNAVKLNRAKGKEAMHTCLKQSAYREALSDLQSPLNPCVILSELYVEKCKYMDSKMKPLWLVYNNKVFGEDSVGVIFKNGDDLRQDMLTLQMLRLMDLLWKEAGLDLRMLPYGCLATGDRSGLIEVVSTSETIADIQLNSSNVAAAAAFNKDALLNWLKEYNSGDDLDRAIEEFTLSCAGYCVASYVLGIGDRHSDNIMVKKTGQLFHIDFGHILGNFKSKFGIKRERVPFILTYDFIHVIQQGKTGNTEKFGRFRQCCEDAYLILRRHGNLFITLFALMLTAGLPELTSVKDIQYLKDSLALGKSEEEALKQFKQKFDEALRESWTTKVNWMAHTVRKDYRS
Assay: as above
Procedure: as §1

Structure (SMILES)	IC50 [nM]
Cc1cccc2cc(Cn3nc(I)c4c(N)ncnc43)n(C3CCCC3)c(=O)c12 [US20250170122, Compound 57]	> 10000
Cc1cccc2cc(Cn3nc(-c4ccc(Cl)c(O)c4)c4c(N)ncnc43)n(C3CCCC3)c(=O)c12 [US20250170122, Compound 71]	< 10000
Cc1cccc2cc(Cn3nc(-c4ccc(O)cc4)c4c(N)ncnc43)n(-c3ccccc3F)c(=O)c12 [US20250170122, Compound 46]	> 10000
C[C@H](Nc1ncnc2[nH]cnc12)c1cc2cccc(Cl)c2c(=O)n1-c1ccc(F)cc1 [US20250170122, Compound 329]	< 100

Target: Phosphatidylinositol 4,5-bisphosphate 3-kinase catalytic subunit alpha isoform (Homo sapiens, UniProt P42336)
Sequence (P42336 whole entry, canonical isoform): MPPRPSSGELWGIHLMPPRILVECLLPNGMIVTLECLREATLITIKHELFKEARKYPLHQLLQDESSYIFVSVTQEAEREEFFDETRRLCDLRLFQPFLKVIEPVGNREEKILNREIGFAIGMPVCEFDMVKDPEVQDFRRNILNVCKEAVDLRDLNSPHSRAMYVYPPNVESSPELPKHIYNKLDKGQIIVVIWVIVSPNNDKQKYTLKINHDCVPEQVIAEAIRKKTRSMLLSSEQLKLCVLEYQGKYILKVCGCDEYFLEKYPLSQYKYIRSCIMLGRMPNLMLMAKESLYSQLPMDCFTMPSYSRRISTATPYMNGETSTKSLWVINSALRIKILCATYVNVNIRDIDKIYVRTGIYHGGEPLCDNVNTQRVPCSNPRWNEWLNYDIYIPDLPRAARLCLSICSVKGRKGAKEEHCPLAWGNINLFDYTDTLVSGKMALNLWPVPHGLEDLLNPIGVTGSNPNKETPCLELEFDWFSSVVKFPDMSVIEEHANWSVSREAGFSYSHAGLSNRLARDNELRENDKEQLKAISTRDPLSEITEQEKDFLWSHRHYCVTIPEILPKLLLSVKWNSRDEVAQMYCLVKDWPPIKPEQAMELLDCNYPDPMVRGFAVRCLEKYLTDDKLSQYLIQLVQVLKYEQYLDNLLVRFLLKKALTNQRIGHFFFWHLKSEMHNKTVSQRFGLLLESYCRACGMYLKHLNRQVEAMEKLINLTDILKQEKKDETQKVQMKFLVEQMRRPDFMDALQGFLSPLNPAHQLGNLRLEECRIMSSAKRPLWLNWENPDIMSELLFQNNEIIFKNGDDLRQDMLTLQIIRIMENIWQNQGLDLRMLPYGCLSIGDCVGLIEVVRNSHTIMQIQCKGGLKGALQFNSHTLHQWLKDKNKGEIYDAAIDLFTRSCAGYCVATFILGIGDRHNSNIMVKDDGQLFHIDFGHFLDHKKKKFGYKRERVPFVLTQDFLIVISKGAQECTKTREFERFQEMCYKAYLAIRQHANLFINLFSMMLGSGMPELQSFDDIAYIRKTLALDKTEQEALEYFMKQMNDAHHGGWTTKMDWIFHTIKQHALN
Assay: as above
Procedure: as §1

Structure (SMILES)	IC50 [nM]
Cc1cccc2cc(Cn3nc(I)c4c(N)ncnc43)n(C3CCCC3)c(=O)c12 [US20250170122, Compound 57]	> 10000
Cc1cccc2cc(Cn3nc(-c4ccc(Cl)c(O)c4)c4c(N)ncnc43)n(C3CCCC3)c(=O)c12 [US20250170122, Compound 71]	> 10000
Cc1cccc2cc(Cn3nc(-c4ccc(O)cc4)c4c(N)ncnc43)n(-c3ccccc3F)c(=O)c12 [US20250170122, Compound 46]	> 10000
[2H]c1nc2c(N[C@@H](C)c3cc4cccc(Cl)c4c(=O)n3C3CC3)ncnc2[nH]1 [US20250170122, Compound 350]	< 1000

Target: T2, Phosphatidylinositol 4,5-bisphosphate 3-kinase catalytic subunit gamma isoform (Homo sapiens, UniProt P48736)
T2 construct: gene PIK3CG
T2 sequence (P48736 whole entry, looked up, canonical isoform): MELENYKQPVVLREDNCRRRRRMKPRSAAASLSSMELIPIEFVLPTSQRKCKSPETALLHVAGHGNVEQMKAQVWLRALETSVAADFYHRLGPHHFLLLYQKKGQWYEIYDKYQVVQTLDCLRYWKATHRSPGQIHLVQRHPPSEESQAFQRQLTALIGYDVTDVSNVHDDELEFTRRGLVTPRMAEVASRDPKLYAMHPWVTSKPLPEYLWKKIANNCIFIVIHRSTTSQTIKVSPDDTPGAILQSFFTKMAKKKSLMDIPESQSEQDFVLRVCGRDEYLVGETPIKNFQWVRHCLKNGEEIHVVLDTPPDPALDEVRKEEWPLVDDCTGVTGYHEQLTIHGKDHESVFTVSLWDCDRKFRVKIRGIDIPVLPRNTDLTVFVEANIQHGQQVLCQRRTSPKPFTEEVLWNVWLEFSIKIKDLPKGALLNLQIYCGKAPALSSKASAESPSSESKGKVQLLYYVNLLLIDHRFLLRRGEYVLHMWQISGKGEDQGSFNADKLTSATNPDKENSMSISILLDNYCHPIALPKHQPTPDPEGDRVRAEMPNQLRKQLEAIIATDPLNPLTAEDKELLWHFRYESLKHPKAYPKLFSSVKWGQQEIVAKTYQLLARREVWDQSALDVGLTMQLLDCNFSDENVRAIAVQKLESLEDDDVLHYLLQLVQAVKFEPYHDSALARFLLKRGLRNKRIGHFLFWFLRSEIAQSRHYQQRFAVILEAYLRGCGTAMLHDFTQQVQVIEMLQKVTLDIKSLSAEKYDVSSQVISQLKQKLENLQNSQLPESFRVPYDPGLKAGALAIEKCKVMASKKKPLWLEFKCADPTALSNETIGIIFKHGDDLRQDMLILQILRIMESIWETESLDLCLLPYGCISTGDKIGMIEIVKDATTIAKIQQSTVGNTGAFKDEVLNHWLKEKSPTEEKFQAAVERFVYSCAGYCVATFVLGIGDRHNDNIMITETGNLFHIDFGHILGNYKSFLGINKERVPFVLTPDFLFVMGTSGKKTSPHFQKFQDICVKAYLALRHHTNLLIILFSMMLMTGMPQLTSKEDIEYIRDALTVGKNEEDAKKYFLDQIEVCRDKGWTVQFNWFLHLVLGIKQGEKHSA
Assay: as above
Procedure: as §1

Structure (SMILES)	IC50 [nM]
Cc1cccc2cc(Cn3nc(I)c4c(N)ncnc43)n(C3CCCC3)c(=O)c12 [US20250170122, Compound 57]	< 10000
C[C@H](Nc1ncnc2sccc12)c1cc2cccc(Cl)c2c(=O)n1-c1ccccc1 [US20250170122, Compound 343]	< 100
C[C@H](Nc1ncnc2ccccc12)c1cc2cccc(Cl)c2c(=O)n1-c1ccccc1 [US20250170122, Compound 342]	< 100
CNc1ncc(C(F)(F)F)c(N[C@@H](C)c2cc3cccc(Cl)c3c(=O)n2-c2ccccc2)n1 [US20250170122, Compound 354]	< 100
C[C@H](Nc1ncnc2[nH]cnc12)c1cc2cccc(Cl)c2c(=O)n1-c1cccc(Cl)c1 [US20250170122, Compound 365]	< 100
C[C@H](Nc1ncnc2[nH]cnc12)c1cc2cccc(F)c2c(=O)n1-c1ccc(F)cc1 [US20250170122, Compound 332]	< 100
C[C@H](Nc1ncnc2[nH]cnc12)c1cc2cccc(F)c2c(=O)n1-c1ccccc1 [US20250170122, Compound 330]	< 100
Nc1ncnc2c1c(-c1cn[nH]c1)nn2Cc1cc2cccc(Cl)c2c(=O)n1-c1ccccc1 [US20250170122, Compound 338]	< 100
Cc1csc2ncnc(N[C@@H](C)c3cc4cccc(Cl)c4c(=O)n3-c3ccccc3)c12 [US20250170122, Compound 352]	< 100
Cc1cccc2cc(Cn3nc(-c4ccc(Cl)c(O)c4)c4c(N)ncnc43)n(C3CCCC3)c(=O)c12 [US20250170122, Compound 71]	< 1000
CC(=O)Nc1nc2ccc(-c3nn(Cc4cc5cccc(C)c5c(=O)n4-c4ccccc4)c(C)c3CN)cc2s1 [US20250170122, Compound 177]	< 100
Cc1cccc2cc(Cn3nc(-c4ccc(O)cc4)c4c(N)ncnc43)n(-c3ccccc3F)c(=O)c12 [US20250170122, Compound 46]	< 1000
Cc1cccc2cc(C(C)Nc3ncnc4[nH]cnc34)n(-c3ccccc3F)c(=O)c12 (stereo not drawn) [US20250170122, Compound 203]	< 100
Cc1ccccc1-n1c(Cn2cnc3c(N)ncnc32)cc2cccc(C)c2c1=O [US20250170122, Compound 5]	> 10000
Cc1cccc2cc(Cn3nc(-c4cccc(Cl)c4)c4c(N)ncnc43)n(-c3ccccc3F)c(=O)c12 [US20250170122, Compound 38]	< 10000
C[C@H](Nc1nc(N)nc2ccccc12)c1cc2cccc(Cl)c2c(=O)n1-c1ccccc1 [US20250170122, Compound 359]	< 100
C[C@H](Nc1ncnc2ccsc12)c1cc2cccc(Cl)c2c(=O)n1-c1ccccc1 [US20250170122, Compound 344]	< 100
C[C@H](Nc1nc(N)ncc1C(F)(F)F)c1cc2cccc(Cl)c2c(=O)n1-c1ccccc1 [US20250170122, Compound 346]	< 100
Cc1ccccc1-n1c(Cn2nc(-c3cn[nH]c3)c3c(N)ncnc32)cc2cccc(Cl)c2c1=O [US20250170122, Compound 336]	< 100
C[C@H](Nc1ncnc2[nH]cnc12)c1cc2cccc(Cl)c2c(=O)n1-c1ccc(F)cc1 [US20250170122, Compound 329]	< 100
C[C@H](Nc1ncnc2[nH]cnc12)c1cc2cccc(Cl)c2c(=O)n1-c1cccc(F)c1 [US20250170122, Compound 328]	< 100
